# Data reported in patent US11896678B2, “Compositions and methods for treatment of peroxisome proliferator-activated receptor gamma (PPARG) activated cancer” (THE BROAD INSTITUTE, INC., priority 2017, dated 2024).
# Legend:
# [1] = target: T1, PPARG ligand-binding domain - SMRT/NCOR2 corepressor peptide (Homo sapiens, UniProt P37231); assay: TR-FRET corepressor assay, SMRT/NCOR2 peptide; assay type: biochemical
# T1 construct: purchased ThermoFisher Scientific
# T1 sequence (P37231 238-503 limits assumed): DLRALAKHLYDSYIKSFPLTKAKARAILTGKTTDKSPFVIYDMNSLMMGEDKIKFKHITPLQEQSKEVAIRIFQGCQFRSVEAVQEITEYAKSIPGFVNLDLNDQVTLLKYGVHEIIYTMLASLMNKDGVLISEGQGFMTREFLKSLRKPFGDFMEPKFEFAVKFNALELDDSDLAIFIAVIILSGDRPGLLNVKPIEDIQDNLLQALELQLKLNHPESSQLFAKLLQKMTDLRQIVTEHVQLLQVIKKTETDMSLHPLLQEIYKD
# Protocol: (§1) To evaluate inverse-agonism, a TR-FRET PPARG co-repressor assay (ThermoFisher) that measures recruitment of a fluorescent NCOR1 or NCOR2 corepressor peptide to the PPARG ligand-binding domain was used (ThermoFisher).
# To determine effects on interactions between PPARG and coregulators, PPARG modulators were tested in two TR-FRET biochemical interaction assays for agonism and inverse-agonism. Agonism was quantitated using a coactivator assay, which measured the interaction between the PPARG ligand-binding domain and a fluorescently-labeled peptide from TRAP220/MED1. […] To evaluate inverse-agonism biochemically, ligand-dependent interactions were measured between PPARG ligand-binding domain and corepressor peptides from NCoR/NCOR1 and SMRT/NCOR2.
# [2] = test system: PPARG-activated bladder cancer cell lines; assay: Proliferation assays in PPARG-activated bladder cancer cell lines; assay type: cell-based, human; details: 100 nM-500 nM
# Protocol: A panel of bladder cancer cell lines with PPARG modulators in colony formation assays was then tested (FIG. 10), kinetic proliferation assays (IncuCyte Zoom; Essen Bioscience) using cell lines treated with a single concentration of compound (100 nM-500 nM), and end-point dose-response assays (CellTiter Glo or CyQuant).
# This assay was expanded to include an additional 8 representative bladder cancer cell lines, including cell lines with PPARG amplification, RXRA p.S427F mutation, activated gene signature, and control cell lines with low level expression of PPARG and target genes. […] Representative data for the UM-UC-9 cell line are shown in FIG. 6B, and is tabulated for the tested bladder cancer cell lines in Table 1. […] This significant (P<0.01) preferential sensitivity to PPARG inverse-agonists, but not antagonists, is maintained across all of the PPARG-activated cell lines in the panel, including the RXRA p.S427F cell line, HT-1197 (41), the PPARG-amplified cell lines, 5637 and UM-UC-9, and the PPARG activation gene signature cell lines Cal29, UM-UC-1, and RT112/84 (FIG. 12). […] Similar results were obtained with these cell lines in parallel studies using clonogenic assays to quantify colony-forming ability (FIG. 10).
# Proliferation Assays: To enable cell-counting experiments, cell lines were transduced with a lentiviral vector encoding nuclear-targeted GFP, TagGFP2-H2B (Evrogen), and stable pools generated following selection for puromycin resistance. Cell lines were maintained for at least 7 days following selection prior to expansion and seeding into 96- or 384-well plates for further analysis. For kinetic proliferation assays, 96-well plates (n 1% 4 per condition) were imaged and counted every two hours using IncuCyte Zoom (Essen BioScience). Media and compounds were replaced approximately every 3-4 days. For endpoint assays to measure dose-response, cells were plated in 384-well plates, dosed with compound, and upon reaching approximately 70% to 90% confluence in control wells, cells were either counted using fluorescence imaging (Incu-Cyte Zoom) or incubated with CyQuant (Thermo Fisher) at the indicated time and plates were read with a fluorescent plate reader.
# FABP4 expression = assay: Immunoblot of FABP4 in bladder cancer cell lines; assay type: cell-based, human; details: panel of bladder cancer cell lines
# Protocol: Western Blot Analysis: Western blots were performed using standard protocols with semi-dry transfer Trans-Blot® SD (Bio-Rad Hercules, CA), Li-Cor Odyssey Blocking buffer, and imaging with LiCor Odyssey Imaging System (LI-COR Lincoln, NE). Briefly, cells were grown in 6-well plates and harvested using Complete Lysis-M with protease and phosphatase inhibitors (Roche Applied Science). Western blot analyses were performed using standard protocols with semi-dry transfer Trans-Blot SD (Bio-Rad), LI-COR Odyssey Blocking buffer, and imaging with LI-COR Odyssey Imaging System (LI-COR). The anti-PPARG C26H12, anti-PPARG 81B8, anti-FABP4 D25B3, and anti-CEACAM5 CB30 antibodies were obtained from Cell Signaling Technology. The anti-ACSL5 ab57210 and anti-HMCGS2 EPR8642 antibodies were obtained from Abcam. The anti-VCL (vinculin) V9264 antibody was obtained from Sigma-Aldrich. All primary antibodies were tested at 1:1,000 dilutions, with the exception of anti-VCL, which was tested at a 1:5,000 dilution. Secondary goat anti-mouse 926-68020, and goat-anti-rabbit 926-32211 antibodies were obtained from LI-COR Biosciences and used at 1:15,000 dilutions.
# PPARG = target: T2, PPARG (Homo sapiens, UniProt P37231); assay: RT112/84 FABP4-NLucP reporter gene assay, antagonist mode with rosiglitazone; assay type: cell-based; details: in the presence of rosiglitazone
# T2 construct: endogenous in cells; host or cells: RT112/84 bladder cancer cells (FABP4-NLucP knock-in clone)
# T2 sequence (P37231 1-477 isoform P37231-2): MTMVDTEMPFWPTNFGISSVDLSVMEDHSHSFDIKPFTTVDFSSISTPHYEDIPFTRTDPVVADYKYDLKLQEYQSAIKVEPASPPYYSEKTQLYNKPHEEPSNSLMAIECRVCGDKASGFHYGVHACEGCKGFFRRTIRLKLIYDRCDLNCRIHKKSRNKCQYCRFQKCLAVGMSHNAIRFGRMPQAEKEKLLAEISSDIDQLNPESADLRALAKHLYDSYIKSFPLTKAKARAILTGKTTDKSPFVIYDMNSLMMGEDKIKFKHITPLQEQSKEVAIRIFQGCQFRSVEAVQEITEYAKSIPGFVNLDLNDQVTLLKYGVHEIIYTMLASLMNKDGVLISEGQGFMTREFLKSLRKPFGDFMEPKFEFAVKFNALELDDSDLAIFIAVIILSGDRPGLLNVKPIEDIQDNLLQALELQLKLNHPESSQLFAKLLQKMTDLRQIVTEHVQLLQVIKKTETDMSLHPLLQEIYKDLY
# Protocol: RT112-FABP4-NLucP Reporter Gene Assay: Reporter cell line was generated by engineering NanoLuc gene into the 3′ UTR of FABP4 in RT112/84 cells using CRISPR/Cas9 guided genome engineering. Single cell clones were generated and the clone with the widest dynamic range selected for use. Assays were performed by seeding 384-well plates with ˜10,000 cells per well in MEMalpha containing 10% FBS and dosing compounds at indicated concentration using HP D300 digital dispenser (HP/Tecan). 18-24 hours after dosing with compound, cells were assayed using NanoGlo Luciferase Assay Reagent (Promega Madison, WI) and plates were read using EnVision Multilabel Reader (PerkinElmer Waltham, MA).
# [3] = target: T3, PPARG ligand-binding domain - NCoR/NCOR1 corepressor peptide (Homo sapiens, UniProt P37231); assay: TR-FRET corepressor assay, NCoR/NCOR1 peptide; assay type: biochemical; details: data not shown
# T3 construct: purchased ThermoFisher Scientific
# T3 sequence (P37231 238-503 limits assumed): T1 sequence (P37231 238-503 limits assumed)
# Protocol: as §1
# In addition to the PPARG-NCOR2 interaction assay described above, interactions between PPARG and a peptide from the corepressor NCOR1 were measured.
structure (smiles),measurement,setting,value
O=C(Nc1ccccc1)c1cc([N+](=O)[O-])ccc1Cl [GW9662],increase in signal,[1],1.7 fold
same,sensitivity of cell lines,[2],not sensitive
same,expression of FABP4,FABP4 expression,not
same,effect on agonist-induced signal,PPARG,decreased the agonist-induced signal back to the original baseline
same,induced signal,[3],2.5 fold
